What was measured:
[1] = tested on: THP-1; test: Antiproliferative activity against human THP-1 cells assessed as cell growth inhibition measured after 72 hrs by SRB assay; assay type: functional, cell-based; conditions: THP-1, 72 h
[2] = tested on: HCT-116; test: Antiproliferative activity against human HCT-116 cells assessed as cell growth inhibition measured after 72 hrs by SRB assay; assay type: functional, cell-based; conditions: HCT-116, 72 h
[3] = tested on: HT-29; test: Antiproliferative activity against human HT-29 cells assessed as cell growth inhibition measured after 72 hrs by SRB assay; assay type: functional, cell-based; conditions: HT-29, 72 h
[4] = tested on: DU-145; test: Antiproliferative activity against human DU-145 cells assessed as cell growth inhibition measured after 72 hrs by SRB assay; assay type: functional, cell-based; conditions: DU-145, 72 h
[5] = tested on: HuTu80; test: Antiproliferative activity against human HuTu80 cells assessed as cell growth inhibition measured after 72 hrs by SRB assay; assay type: functional, cell-based; conditions: HuTu80, 72 h
[6] = tested on: MV4-11; test: Antiproliferative activity against human MV4-11 cells assessed as cell growth inhibition measured after 72 hrs by SRB assay; assay type: functional, cell-based; conditions: MV4-11, 72 h
[7] = biological target: Voltage-gated inwardly rectifying potassium channel KCNH2 (Homo sapiens, UniProt Q12809); test: Inhibition of hERG channel; assay type: toxicity
[8] = tested on: CAPAN-1; test: Antiproliferative activity against human CAPAN-1 cells assessed as cell growth inhibition measured after 72 hrs by SRB assay; assay type: functional, cell-based; conditions: CAPAN-1, 72 h
[9] = biological target: T1, Serine/threonine-protein kinase TAO1 (Homo sapiens) (UniProt Q7L7X3); test: Inhibition of human partial length wild type TAOK1 at 1 uM by Kinomescan method relative to control
T1 sequence (whole entry): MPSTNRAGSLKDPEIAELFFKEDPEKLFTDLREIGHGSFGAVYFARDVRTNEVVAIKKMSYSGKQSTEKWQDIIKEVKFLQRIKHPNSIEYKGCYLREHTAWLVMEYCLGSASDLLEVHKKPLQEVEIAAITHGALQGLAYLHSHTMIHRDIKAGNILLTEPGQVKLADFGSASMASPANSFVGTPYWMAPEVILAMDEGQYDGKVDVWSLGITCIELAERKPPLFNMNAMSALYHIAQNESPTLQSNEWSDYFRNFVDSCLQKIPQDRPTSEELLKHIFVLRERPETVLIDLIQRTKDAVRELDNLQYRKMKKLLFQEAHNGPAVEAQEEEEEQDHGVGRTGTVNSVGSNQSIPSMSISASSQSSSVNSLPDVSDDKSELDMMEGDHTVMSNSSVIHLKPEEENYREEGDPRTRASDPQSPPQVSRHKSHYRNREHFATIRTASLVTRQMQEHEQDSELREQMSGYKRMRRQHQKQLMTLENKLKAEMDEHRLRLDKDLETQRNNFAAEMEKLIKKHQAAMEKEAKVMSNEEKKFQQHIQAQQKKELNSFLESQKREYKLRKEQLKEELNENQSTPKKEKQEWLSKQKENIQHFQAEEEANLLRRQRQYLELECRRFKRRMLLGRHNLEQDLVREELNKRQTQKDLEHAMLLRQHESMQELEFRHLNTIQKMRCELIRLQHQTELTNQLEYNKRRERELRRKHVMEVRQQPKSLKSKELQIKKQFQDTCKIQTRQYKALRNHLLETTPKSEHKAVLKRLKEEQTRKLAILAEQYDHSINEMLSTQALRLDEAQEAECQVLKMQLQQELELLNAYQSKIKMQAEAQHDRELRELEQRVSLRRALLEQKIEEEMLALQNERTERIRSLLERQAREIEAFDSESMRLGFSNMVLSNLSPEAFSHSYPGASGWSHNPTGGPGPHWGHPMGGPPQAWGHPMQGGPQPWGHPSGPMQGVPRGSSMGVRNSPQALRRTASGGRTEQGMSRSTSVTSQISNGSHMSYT

[10] = Toxicity in nude mouse xenografted with human HCT-116 cells assessed as effect on body weight at 60 mg/kg, sc bid administered at 5 on/5 off/8 for 18 days; assay type: organism-based; conditions: in vivo, 432 h, time 18 day
[11] = tested on: HCT-116; test: Antiproliferative activity against human HCT-116 cells assessed as cell growth inhibition by sulforhodamine B assay; assay type: functional, cell-based
[12] = tested on: LNCaP-Clone-FGC; test: Antiproliferative activity against human LNCaP-Clone-FGC cells assessed as cell growth inhibition measured after 72 hrs by SRB assay; assay type: functional, cell-based
[13] = tested on: RKO; test: Antiproliferative activity against human RKO cells assessed as cell growth inhibition measured after 72 hrs by SRB assay; assay type: functional, cell-based
[14] = Observed MRTinfinity in Sprague-Dawley rat at 1 mg/kg, iv; assay type: ADME, organism-based; conditions: in vivo
[15] = Observed AUCinfinity in Sprague-Dawley rat at 1 mg/kg, iv; assay type: ADME, organism-based; design: time infinity, dose 1 mg/kg, route iv; conditions: in vivo
[16] = Inhibition of UAE (unknown origin) […] assessed as decrease in UbcH10-Ub adduct formation incubated for 2 hrs in presence of L-glutathione and ATP by HTRF assay; design: species or system Homo sapiens
[17] = Volume of distribution at steady state in Sprague-Dawley rat at 1 mg/kg, iv; assay type: ADME, organism-based; conditions: in vivo, read-out: Vdss
[18] = AUClast in Sprague-Dawley rat at 1 mg/kg, iv; assay type: ADME, organism-based; design: time 0 - last, dose 1 mg/kg, route iv; conditions: in vivo
[19] = Half life in Sprague-Dawley rat at 1 mg/kg, iv; assay type: ADME, organism-based; conditions: in vivo
[20] = Clearance in Sprague-Dawley rat at 1 mg/kg, iv; assay type: ADME, organism-based; conditions: in vivo
[21] = biological target: T1, Serine/threonine-protein kinase TAO1 (Homo sapiens); test: Inhibition of human partial length wild type TAOK1 by measuring selectivity score at 1 uM by Kinomescan method relative to control
[22] = tested on: HCT-116; test: Antitumor activity against human HCT-116 cells xenografted in nude mouse assessed as reduction in tumor growth at 60 mg/kg, sc bid administered at 5 on/5 off/8 for 18 days; assay type: functional; conditions: time 18 day
[23] = tested on: Jurkat; test: Antiproliferative activity against human Jurkat cells assessed as cell growth inhibition measured after 72 hrs by SRB assay; assay type: functional, cell-based

Chain of Voltage-gated inwardly rectifying potassium channel KCNH2 (Q12809 whole entry): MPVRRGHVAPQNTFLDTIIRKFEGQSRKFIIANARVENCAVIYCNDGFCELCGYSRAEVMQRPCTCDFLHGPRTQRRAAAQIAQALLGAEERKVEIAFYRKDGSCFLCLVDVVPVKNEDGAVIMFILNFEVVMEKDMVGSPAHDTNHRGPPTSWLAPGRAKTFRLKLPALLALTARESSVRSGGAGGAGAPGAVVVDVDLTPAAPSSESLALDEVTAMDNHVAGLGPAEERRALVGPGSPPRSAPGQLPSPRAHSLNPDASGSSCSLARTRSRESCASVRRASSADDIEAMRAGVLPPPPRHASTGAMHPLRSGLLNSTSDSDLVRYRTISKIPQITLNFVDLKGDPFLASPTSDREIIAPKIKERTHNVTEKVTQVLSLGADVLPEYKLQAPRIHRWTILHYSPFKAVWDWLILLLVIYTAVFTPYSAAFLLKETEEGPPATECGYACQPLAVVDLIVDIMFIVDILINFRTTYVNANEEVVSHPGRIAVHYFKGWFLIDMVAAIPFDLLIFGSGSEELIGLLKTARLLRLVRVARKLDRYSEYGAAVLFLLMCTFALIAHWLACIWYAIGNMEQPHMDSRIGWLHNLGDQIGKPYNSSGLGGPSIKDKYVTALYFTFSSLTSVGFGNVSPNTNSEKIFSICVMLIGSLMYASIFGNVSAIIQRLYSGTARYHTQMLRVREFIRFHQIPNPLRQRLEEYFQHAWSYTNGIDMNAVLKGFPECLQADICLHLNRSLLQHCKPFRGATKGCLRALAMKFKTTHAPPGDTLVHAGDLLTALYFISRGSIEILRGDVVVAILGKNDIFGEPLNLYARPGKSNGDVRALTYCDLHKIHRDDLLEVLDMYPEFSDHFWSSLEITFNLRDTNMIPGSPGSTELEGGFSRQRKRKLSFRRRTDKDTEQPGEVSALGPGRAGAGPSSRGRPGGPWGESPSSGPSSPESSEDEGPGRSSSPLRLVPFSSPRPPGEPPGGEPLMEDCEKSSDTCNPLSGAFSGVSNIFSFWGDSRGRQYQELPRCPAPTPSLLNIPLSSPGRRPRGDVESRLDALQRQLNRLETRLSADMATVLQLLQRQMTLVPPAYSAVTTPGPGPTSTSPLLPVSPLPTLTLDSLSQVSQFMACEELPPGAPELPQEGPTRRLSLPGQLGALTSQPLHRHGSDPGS

IC50 [1]: 115 nM
IC50 [2]: 36.2 nM
IC50 [3]: 484 nM
IC50 [4]: 201 nM
IC50 [6]: 107 nM
inhibition [9]: 35%
IC50 [11]: 33.9 nM
IC50 [12]: 64.6 nM
MRT inf [14]: 1.9 h
AUC(0-inf) [15]: 1340 ng·h/mL
IC50 [16]: 3.72 nM
Vd [17]: 1.63 L/kg
AUC(0-t) [18]: 1330 ng·h/mL
half-life [19]: 81.6 min
clearance [20]: 16.5 mL/min/kg
Activity [21]: 0.002
IC50 [23]: 152 nM
SMILES: NS(=O)(=O)OC[C@@H]1C[C@@H](n2ccc3c(N[C@H]4CCc5ccccc54)ncnc32)C[C@@H]1O [PEVONEDISTAT]
IC50 [5]: 42.6 nM
IC50 [7]: > 40 µM
IC50 [8]: 101 nM
Activity [10]: Non-Toxic
IC50 [13]: 166 nM
T/C [22]: 0.1
